Experimental data published in patent publication US10959432B2, “Microbiocidal oxadiazole derivatives” (Syngenta Participations AG, priority 2016, dated 2021).

Assays:
[1] = tested on: Puccinia recondita f. sp. tritici; assay: Fungicidal activity against Puccinia recondita f. sp. tritici / wheat / leaf disc preventative (brown rust); format: in vivo; settings: foliar, 200 ppm in the applied formulation, wheat leaf segments cv. Kanzler, preventative (inoculated 1 day after application), assessed 7 to 9 days after application, read-out: disease control compared to untreated control leaf disks
In short: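 Preventative leaf-segment test: compound sprayed at 200 ppm onto wheat (cv. Kanzler) segments, brown rust spores applied 1 day after. Kept at 19C and 75% rh under 12 h light/dark cycles; disease control versus untreated check read 7 to 9 days post-application.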

[2] = tested on: Uromyces viciae-fabae; assay: Fungicidal activity against Uromyces viciae-fabae / field bean / leaf disc preventative (faba-bean rust); format: in vivo; settings: foliar, 288 h, 100 ppm in the applied formulation, field bean leaf discs, preventative (inoculated two hours after application), assessed 12 days after application, read-out: disease control compared to untreated control leaf discs
Experimental: Leaf disks or leaf segments of various plant species are cut from plants grown in a greenhouse. The cut leaf disks or segments are placed in multiwell plates (24-well format) onto water agar. The leaf disks are sprayed with a test solution before (preventative) or after (curative) inoculation. Compounds to be tested are prepared as DMSO solutions (max. 10 mg/ml) which are diluted to the appropriate concentration with 0.025% Tween20 just before spraying. The inoculated leaf disks or segments are incubated under defined conditions (temperature, relative humidity, light, etc.) according to the respective test system. A single evaluation of disease level is carried out 3 to 14 days after inoculation, depending on the pathosystem. Percent disease control relative to the untreated check leaf disks or segments is then calculated. General Examples of Liquid Culture Tests in Well Plates:
Example 5: Fungicidal Activity Against Uromyces viciae-fabae/Field Bean/Leaf Disc Preventative (Faba-Bean Rust)
Field bean leaf discs are placed on water agar in multiwell plates (96-well format) and 10 μl of the formulated test compound diluted in acetone and a spreader pipetted onto the leaf disc. Two hours after application leaf discs are inoculated by spraying a spore suspension on the lower leaf surface. The leaf discs are incubated in a climate cabinet at 22° C. with 18 hour day and 70% relative humidity. The activity of a compound is assessed as percent disease control compared to untreated when an appropriate level of disease damage appears in untreated check leaf disks (12 days after application).
The following compounds at 100 ppm in the applied formulation give at least 80% disease control in this test when compared to untreated control leaf discs under the same conditions, which show extensive disease development.

[3] = tested on: Phakopsora pachyrhizi; assay: Fungicidal activity against Phakopsora pachyrhizi / soybean / leaf disc preventative (Asian soybean rust); format: in vivo; settings: foliar, 200 ppm in the applied formulation, soybean leaf disks, preventative (inoculated one day after application), assessed 12 to 14 days after application, read-out: disease control compared to untreated control leaf disks
In short: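 Preventative test: compound applied to soybean leaf discs a day before spore inoculation of the lower surface. Discs kept at 20° C and 75% rh, first 24-36 h in darkness, then under 12 h light/day; disease control relative to untreated discs rated 12 to 14 days post-application.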

[4] = tested on: Glomerella laqenarium (Colletotrichum lagenarium); assay: Fungicidal activity against Glomerella lagenarium (Colletotrichum lagenarium) liquid culture / cucumber / preventative (anthracnose); format: cell-based; settings: Colletotrichum orbiculare; 20 ppm in the applied formulation; liquid culture in PDB, 24° C., 3 to 4 days after application; read-out: disease control compared to untreated control (inhibition of growth measured photometrically)
In short: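 Test compound, applied from DMSO solution, is combined with PDB containing conidia taken from cryogenic storage. After 3–4 days at 24 °C, growth is measured photometrically and antifungal activity expressed as percent relative to untreated control.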

Structure (SMILES)	pest or weed control at 200 ppm [1]	pest or weed control at 100 ppm [2]	pest or weed control at 200 ppm [3]	inhibition at 20 ppm [4]
O=C(N[C@H]1CCN(Cc2ccccc2)C1)c1ccc(-c2noc(C(F)(F)F)n2)cc1 [Compound 1a.6, N-[(3S)-1-benzylpyrrolidin-3-yl]-4-[5-(trifluoromethyl)-1,2,4-oxadiazol-3-yl]benzamide]	≥ 80%	≥ 80%	–	–
CN(CC1CCCCN1C)C(=O)c1ccc(-c2noc(C(F)(F)F)n2)cc1 (stereo not shown) [Compound 1a.10, N-methyl-N-[(1-methyl-2-piperidyl)methyl]-4-[5-(trifluoromethyl)-1,2,4-oxadiazol-3-yl]benzamide]	≥ 80%	≥ 80%	–	–
CC(C)(C)OC(=O)N1CCC(CNC(=O)c2ccc(-c3noc(C(F)(F)F)n3)cc2)CC1 [Compound 1a.11, tert-butyl 4-[[[4-[5-(trifluoromethyl)-1,2,4-oxadiazol-3-yl]benzoyl]amino]methyl]piperidine-1-carboxylate]	≥ 80%	≥ 80%	–	–
CCN1CCC[C@@H]1CNC(=O)c1ccc(-c2noc(C(F)(F)F)n2)cc1F [Compound 1b.1, N-[[(2R)-1-ethylpyrrolidin-2-yl]methyl]-2-fluoro-4-[5-(trifluoromethyl)-1,2,4-oxadiazol-3-yl]benzamide]	≥ 80%	≥ 80%	≥ 80%	–
O=C(NC1CCN(Cc2ccccc2)CC1)c1ccc(-c2noc(C(F)(F)F)n2)cc1F [Compound 1b.3, N-(1-benzyl-4-piperidyl)-2-fluoro-4-[5-(trifuoromethyl)-1,2,4-oxadiazol-3-yl]benzamide]	≥ 80%	≥ 80%	≥ 80%	–
CCOC(=O)N1CCC(NC(=O)c2ccc(-c3noc(C(F)(F)F)n3)cc2F)CC1 [Compound 1b.4, ethyl 4-[[2-fluoro-4-[5-(trifluoromethyl)-1,2,4-oxadiazol-3-yl]benzoyl]amino]piperidine-1-carbonylate]	≥ 80%	≥ 80%	–	–
CN(C(=O)c1ccc(-c2noc(C(F)(F)F)n2)cc1F)C1CCSC1 (stereo not shown) [Compound 1b.8, 2-fluoro-N-methyl-N-tetrahydrothiophen-3-yl-4-[5-(trifluoromethyl)-1,2,4-oxadiazol-3-yl]benzamide]	≥ 80%	≥ 80%	–	–
O=C(NC1CCSC1)c1ccc(-c2noc(C(F)(F)F)n2)cc1F (stereo not shown) [Compound 1b.11, 2-fluoro-N-tetrahydrothiophen-3-yl-4-[5-(trifluoromethyl)-1,2,4-oxadiazol-3-yl]benzamide]	≥ 80%	≥ 80%	–	–
O=C(NCC1CCOC1)c1ccc(-c2noc(C(F)(F)F)n2)cc1Cl (stereo not shown) [Compound 1b.14, 2-chloro-N-(tetrahydrofuran-3-ylmethyl)-4-[5-(trifluoromethyl)-1,2,4-oxadiazol-3-yl]benzamide]	≥ 80%	≥ 80%	≥ 80%	≥ 80%
CC1CCC(NC(=O)c2ccc(-c3noc(C(F)(F)F)n3)cc2)CC1 (stereo not shown) [Compound 2a.6, N-(4-methylcyclohexyl)-4-[5-(trifluoromethyl)-1,2,4-oxadiazol-3-yl]benzamide]	≥ 80%	≥ 80%	≥ 80%	–
O=C(NC1(Cc2ccc(Cl)cc2)CC1)c1ccc(-c2noc(C(F)(F)F)n2)cc1 [Compound 2a.7, N-[1-[(4-chlorophenyl)methyl]cyclopropyl]-4-[5-(trifluoromethyl)-1,2,4-oxadiazol-3-yl]benzamide]	≥ 80%	≥ 80%	≥ 80%	–
C#CC1(NC(=O)c2ccc(-c3noc(C(F)(F)F)n3)cc2F)CCCCC1 [Compound 2b.2, N-(1-ethynylcyclohexyl)-2-fluoro-4-[5-(trifluoromethyl)-1,2,4-oxadiazol-3-yl]benzamide]	–	≥ 80%	≥ 80%	≥ 80%
O=C(NC1(C2CC2)CC1)c1ccc(-c2noc(C(F)(F)F)n2)cc1F [Compound 2b.6, N-(1-cyclopropylcyclo-propyl)-2-fluoro-4-[5-(trifluoromethyl)-1,2,4-oxadiazol-3-yl]benzamide]	–	≥ 80%	≥ 80%	≥ 80%
CC1CCCC(NC(=O)c2ccc(-c3noc(C(F)(F)F)n3)cc2F)C1 (stereo not shown) [Compound 2b.10, 2-fluoro-N-(3-methylcyclohexyl)-4-[5-(trifluoromethyl)-1,2,4-oxadiazol-3-yl]benzamide]	≥ 80%	≥ 80%	–	–
O=C(NCC1CC(F)(F)C1(F)F)c1ccc(-c2noc(C(F)(F)F)n2)cc1Cl (stereo not shown) [Compound 2b.14, 2-chloro-N-[(2,2,3,3-tetrafluorocyclo-butyl)methyl]-4-[5-(trifluoromethyl)-1,2,4-oxadiazol-3-yl]benzamide]	≥ 80%	≥ 80%	–	–
CC(NC(=O)c1ccc(-c2noc(C(F)(F)F)n2)cc1Cl)C1CC1 (stereo not shown) [Compound 2b.15, 2-chloro-N-(1-cyclopropylethyl)-4-[5-(trifluoromethyl)-1,2,4-oxadiazol-3-yl]benzamide]	≥ 80%	≥ 80%	≥ 80%	–
O=C(NC1(C2CC2)CC1)c1ccc(-c2noc(C(F)(F)F)n2)cc1Cl [Compound 2b.16, 2-chloro-N-(1-cyclopropylcyclo-propyl)-4-[5-(trifluoromethyl)-1,2,4-oxadiazol-3-yl]benzamide]	≥ 80%	≥ 80%	–	–
O=C(NCCCCc1ccccc1)c1ccc(-c2noc(C(F)(F)F)n2)cc1F [Compound 4b.10, 2-fluoro-N-(4-phenylbutyl)-4-[5-(trifluoromethyl)-1,2,4-oxadiazol-3-yl]benzamide]	–	≥ 80%	≥ 80%	≥ 80%
CCOc1ccc(CN(C(=O)c2ccc(-c3noc(C(F)(F)F)n3)cc2F)C(C)C)cc1OCC [Compound 4b.11, N-[(3,4-diethoxyphenyl)methyl]-2-fluoro-N-isopropyl-4-[5-(trifluoromethyl)-1,2,4-oxadiazol-3-yl]benzamide]	≥ 80%	≥ 80%	–	≥ 80%
O=C(NCc1ccc(F)c(Br)c1)c1ccc(-c2noc(C(F)(F)F)n2)cc1F [Compound 4b.13, N-[(3-bromo-4-fluoro-phenyl)methyl]-2-fluoro-4-[5-(trifluoromethyl)-1,2,4-oxadiazol-3-yl]benzamide]	≥ 80%	≥ 80%	–	–
COc1ccc(CNC(=O)c2ccc(-c3noc(C(F)(F)F)n3)cc2F)c(OC)c1 [Compound 4b.14, N-[(2,4-dimethoxyphenyl)methyl]-2-fluoro-4-[5-(trifluoromethyl)-1,2,4-oxadiazol-3-yl]benzamide]	≥ 80%	≥ 80%	–	–
O=C(Nc1nc(Br)n[nH]1)c1ccc(-c2noc(C(F)(F)F)n2)cc1F [Compound 5b.10, N-(3-bromo-1H-1,2,4-triazol-5-yl)-2-fluoro-4-[5-(trifluoromethyl)-1,2,4-oxadiazol-3-yl]benzamide]	≥ 80%	≥ 80%	–	≥ 80%
O=C(NCCCn1ccnc1)c1ccc(-c2noc(C(F)(F)F)n2)cc1F [Compound 5b.12, 2-fluoro-N-(3-imidazol-1-ylpropyl)-4-[5-(trifluoromethyl)-1,2,4-oxadiazol-3-yl]benzamide]	–	≥ 80%	≥ 80%	–
O=C(NCCc1cccs1)c1ccc(-c2noc(C(F)(F)F)n2)cc1Cl [Compound 5b.18, 2-chloro-N-[2-(2-thienyl)ethyl]-4-[5-(trifluoromethyl)-1,2,4-oxadiazol-3-yl]benzamide]	≥ 80%	≥ 80%	–	≥ 80%
